This note sets out measurements from patent publication US9403786B2, “Anti-inflammatory compounds” (University of South Australia, priority 2009, dated 2016).

The assay concerns TPA-induced mouse ear oedema. Description: TPA-induced mouse ear oedema model. Type of assay: in vivo, Male Balb/C mice. On the procedure: Anti-inflammatory activity was measured in the mouse ear oedema model using 12-O-tetradeconoylphorbol-13-acetate (TPA) (Sigma) or croton oil as the inducer of inflammation (Sanchez, T and Moreno, J 1999, Role of leukocyte influx in tissue prostaglandin H synthase-2 overexpression induced by phorbol ester and arachidonic acid in skin, Biochemical Pharmacology, 58, 877-879.). Male Balb/C mice 7-9 weeks old and weighing 20-25 g were used. Mice were housed in cages at constant room temperature (20±2° C.) with access to food (standard rat/mouse pellet) and water ad libitum. A 12 hr day/night cycle was maintained in the animal holding facility (Reid building animal house, University of South Australia) and all experiments were carried out during the day phase.
Baseline measurements of ear thickness were measured using a digital micrometer (±0.001 mm, Mitutoyo, Japan) prior to the experiment. TPA (2.5 μg/ear), which was dissolved in acetone, was then applied in a volume of 20 μL to the inner surface of the right ear and 20 μL of acetone to the left ear as control. After thirty minutes the test samples, which were dissolved in 80% ethanol, were applied to the inner surface of the right ear and 80% ethanol on the left ear to the respective treatment groups. Betamethasone 17,21-dipropionate (Sigma) (0.9 μmol/ear) was used as a positive control. Multi-dose experiments were conducted over the range 0.005-1.83 μmol/ear. At 2 h, 4 h, 6 h, 8 h, 24 h and 48 h after the application, the ear thicknesses were measured using a digital micrometer. A non-treated control group to which only croton oil or TPA were applied was used as a measure of maximum inflammation achieved with percent inhibition of inflammation of test sample being calculated relative to this group. Following completion of the experiment, mice were euthanized by inhalation of isoflurane followed by cervical dislocation.

For “15,16-epoxy-8(α)-(benzoyloxy)methyl-cleroda-3,13(16), 14-trien-18-oic acid [Compound E]”, where the note is “TPA-induced mouse ear oedema model”, the anti-inflammatory activity result was “significant anti-inflammatory activity”. Where the note is “dose of 0.91 μmol”, this substance displayed a maximum inhibition of 76.4±7.3%. Also, the “effect at lower concentrations” value (doses lower than 1.83 μmol/ear) is “no observable effect”. Moreover, the “activity when compared to TPA only control” value (highest dose tested 1.83 μmol/ear, p<0.05) is given as “some significant level of activity”.
